Data reported in US20160243277A1, “FAST CURING POROUS MATERIALS AND CONTROL THEREOF” (priority 2013, published 2016).

Columns and labels:
[1] = test system: human mesenchymal stem cells (hMSCs); experiment: Macromer extract dilution cytocompatibility test (modified ISO 10993-5, Live/Dead); details: undiluted (1X) extract from 10 minute media incubation with macromer, 24 hour culture
Protocol: Bone marrow-derived human mesenchymal stem cells (hMSCs) were obtained as Passage 1 in a cryovial from the Center for the Preparation and Distribution of Adult Stem Cells. Cells were cultured in growth media containing 16.5% fetal bovine serum (Atlanta Biologicals), 1% L-glutamine (Life Technologies) and Minimum Essential Media α (MEM α, Life Technologies) to about 80% confluency and utilized at Passages 5 and 6. Cells were trypsinized with 0.25% Trypsin-EDTA (Life Technologies) and seeded at a density of about 40,000 cells/cm^2 in a 96 well plate and allowed to adhere for about 24 hours. On the following day, about 100 μl of each macromer was incubated in about 300 μl growth media supplemented with 1 vol. % penicillin-streptomycin (Life Technologies) in a 48 well plate to mimic the ratio of organic to aqueous phase in the HIPE. After about 10 minute incubation at about 37° C., 5% CO2, the supernatant above the macromers was aspirated and diluted to about 10× and about 100× solutions. […] Extracted and diluted media (1, 10, and 100×) was then added to cells and cultured for an additional time, generally about 24 hours. Viability was assessed utilizing the Live/Dead® assay kit (registration with Molecular Probes Corporation, Eugene, Oreg.). The analysis used a plate reader (Tecan Infinite M200Pro) with excitation/emission wavelengths of 485/528 and 528/620 for calcein-AM and ethidium homodimer-1 dyes, respectively. Viability was normalized to cells on tissue culture polystyrene.

[2] = previously described PFDMA macromer; cited from earlier work

Row | Compound | hMSC viability after exposure to extract media [1] | Macromer viscosity [2]
1 | C=C(C)C(=O)OCCOC(=O)C(=C)C [EGDMA, ethylene glycol dimethacrylate] | less | –
2 | C=C(C)C(=O)OCCCCOC(=O)C(=C)C [BDMA, butane diol dimethacrylate] | less | –
3 | propylene fumarate dimethacrylate [PFDMA] | > 80% | about 125 cP
